The target in the test is T1, MAGL (Homo sapiens, UniProt Q99685).
T1 sequence (Q99685 1-303): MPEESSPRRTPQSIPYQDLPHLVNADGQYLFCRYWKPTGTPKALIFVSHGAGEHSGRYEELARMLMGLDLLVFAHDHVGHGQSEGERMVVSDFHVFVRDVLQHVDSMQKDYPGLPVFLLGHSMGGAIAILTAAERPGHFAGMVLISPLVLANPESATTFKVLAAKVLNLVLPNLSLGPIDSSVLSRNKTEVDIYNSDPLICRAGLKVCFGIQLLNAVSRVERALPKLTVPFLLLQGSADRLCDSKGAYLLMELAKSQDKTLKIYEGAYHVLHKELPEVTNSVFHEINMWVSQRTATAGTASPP
Briefly: 2-AG assay (MAGL inhibitory activity; hydrolysis of 2-arachidonoylglycerol to arachidonic acid followed by mass spectrometry). It counts as biochemical. To be noted: 15 min preincubation at RT, 8 μM 2-arachidonoylglycerol, 30 min at RT, RapidFire MS readout. The gist of the method:
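Compounds (final 12.5 μM to […], 3-fold steps) preincubated 15 min at RT with MAGL ([…]) in 50 mM TRIS, 1 mM EDTA, Tween buffer. Reaction started with 8 μM 2-arachidonoylglycerol, run 30 min at RT, quenched with ACN containing d8-arachidonic acid. Arachidonic acid quantified by RapidFire SPE-triple quadrupole MS (negative ESI), activity from arachidonic acid/d8 ratio.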

Turning to `COc1cccc(C(=O)N2CCN3C[C@@H](c4ccc(F)c(Cl)c4)OC[C@@H]3C2)c1Br` (racemic) [Example 2, (2-bromo-3-methoxy-phenyl)-[rac-(3R,9aS)-3-(3-chloro-4-fluoro-phenyl)-3,4,6,7,9,9a-hexahydro-1H-pyrazino[2,1-c][1,4]oxazin-8-yl]methanone], the IC50 (commonly the midpoint of a concentration-inhibition curve) amounted to 14.6 nM. For `O=C(c1cccc(-c2cnsc2)c1Cl)N1CCN2C[C@@](O)(c3ccc(F)c(Cl)c3)OC[C@@H]2C1` [Example 127, [(3R,9aS)-3-(3-chloro-4-fluoro-phenyl)-3-hydroxy-1,4,6,7,9,9a-hexahydropyrazino[2,1-c][1,4]oxazin-8-yl]-(2-chloro-3-isothiazol-4-yl-phenyl)methanone] the value was 97.7 nM; for `COc1cccc(C(=O)N2CCN3CC(c4ccc(F)c(-c5cnco5)c4)OC[C@@H]3C2)c1Cl` (stereo partly drawn) [Example 145, [(9aS)-3-(4-fluoro-3-oxazol-5-yl-phenyl)-3,4,6,7,9,9a-hexahydro-1H-pyrazino[2,1-c][1,4]oxazin-8-yl]-(2-chloro-3-methoxy-phenyl)methanone], 363 nM. For `O=C(c1cccc(-c2c[nH]nc2F)c1Cl)N1CCN2C[C@H](c3ccc(F)c(Cl)c3)OC[C@@H]2C1` [Example 50, [(3S,9aS)-3-(3-chloro-4-fluoro-phenyl)-3,4,6,7,9,9a-hexahydro-1H-pyrazino[2,1-c][1,4]oxazin-8-yl]-[2-chloro-3-(3-fluoro-1H-pyrazol-4-yl)phenyl]methanone] the value was 418 nM; for `O=C(c1cccc(-c2cn[nH]c2C(F)(F)F)c1F)N1CCN2C[C@@H](c3ccc(F)c(Cl)c3)OC[C@@H]2C1` [Example 102, [(3R,9aS)-3-(3-chloro-4-fluoro-phenyl)-3,4,6,7,9,9a-hexahydro-1H-pyrazino[2,1-c][1,4]oxazin-8-yl]-[2-fluoro-3-[5-(trifluoromethyl)-1H-pyrazol-4-yl]phenyl]methanone], 20.7 nM. For `COc1cccc(C(=O)N2CCN3C=C(c4nc5ccccc5s4)OCC3C2)c1Cl` (stereo not shown) [Example 87, [3-(1,3-benzothiazol-2-yl)-6,7,9,9a-tetrahydro-1H-pyrazino[2,1-c][1,4]oxazin-8-yl]-(2-chloro-3-methoxy-phenyl)methanone] the value was 983 nM; for `O=C(c1cccc(-c2c[nH]ncc2=O)c1Cl)N1CCN2C[C@@H](c3ccc(F)c(Cl)c3)OC[C@@H]2C1` [Example 158, 5-[3-[(3R,9aS)-3-(3-chloro-4-fluoro-phenyl)-3,4,6,7,9,9a-hexahydro-1H-pyrazino[2,1-c][1,4]oxazine-8-carbonyl]-2-chloro-phenyl]-1H-pyridazin-4-one], 1020 nM. The compound `COc1cccc(C(=O)N2CCN3C[C@@H](c4cccc(C(F)(F)F)n4)OC[C@@H]3C2)c1Cl` (single isomer, unassigned) [Example 63] had a half-inhibitory concentration (IC50) of 1310 nM. In turn, `Cc1ccnnc1-c1cccc(C(=O)N2CCN3C[C@@H](c4ccc(F)c(Cl)c4)OC[C@@H]3C2)c1Cl` [Example 34, [(3R,9aS)-3-(3-chloro-4-fluoro-phenyl)-3,4,6,7,9,9a-hexahydro-1H-pyrazino[2,1-c][1,4]oxazin-8-yl]-[2-chloro-3-(4-methylpyridazin-3-yl)phenyl]methanone] returned an IC50 of 1440 nM. For `Cc1nocc1-c1cccc(C(=O)N2CCN3C[C@@H](c4ccc(F)c(Cl)c4)OC[C@@H]3C2)c1Cl` [Example 40, [(3R,9aS)-3-(3-chloro-4-fluoro-phenyl)-3,4,6,7,9,9a-hexahydro-1H-pyrazino[2,1-c][1,4]oxazin-8-yl]-[2-chloro-3-(3-methylisoxazol-4-yl)phenyl]methanone] the value was 160 nM; for `O=C(c1cccc(-c2c[nH]nc2F)c1Cl)N1CCN2CC(c3ccc(C(F)(F)F)nc3)OC[C@@H]2C1` (mixture of isomers) [Example 68, [(9aS)-3-[6-(trifluoromethyl)-3-pyridyl]-3,4,6,7,9,9a-hexahydro-1H-pyrazino[2,1-c][1,4]oxazin-8-yl]-[2-chloro-3-(3-fluoro-1H-pyrazol-4-yl)phenyl]methanone], 15.8 nM; for `COc1cccc(C(=O)N2CCN3C[C@@](O)(c4cc(Br)no4)OC[C@@H]3C2)c1Cl` [Example 157, [(3S,9aS)-3-(3-bromoisoxazol-5-yl)-3-hydroxy-1,4,6,7,9,9a-hexahydropyrazino[2,1-c][1,4]oxazin-8-yl]-(2-chloro-3-methoxy-phenyl)methanone], 849 nM. As for `COc1ccc(F)c(C(=O)N2CCN3C[C@@](O)(c4ccc(F)c(Cl)c4)OC[C@@H]3C2)c1Cl` [Example 116, [(3R,9aS)-3-(3-chloro-4-fluoro-phenyl)-3-hydroxy-1,4,6,7,9,9a-hexahydropyrazino[2,1-c][1,4]oxazin-8-yl]-(2-chloro-6-fluoro-3-methoxy-phenyl)methanone], inhibition was half-maximal at 15.9 nM (IC50). The result for `COc1cccc(C(=O)N2CCN3C[C@@H](c4ccc(F)c(Cl)c4)OC[C@@H]3C2)c1Cl` [Example 1, [(3R,9aS)-3-(3-chloro-4-fluoro-phenyl)-3,4,6,7,9,9a-hexahydro-1H-pyrazino[2,1-c][1,4]oxazin-8-yl]-(2-chloro-3-methoxy-phenyl)methanone] reads 18.3 nM; that for `O=C(c1cnc2sccc2c1Cl)N1CCN2C[C@@H](c3ccc(F)c(Cl)c3)OC[C@@H]2C1` [Example 5, (4-chlorothieno[2,3-b]pyridin-5-yl)-[(3R,9aS)-3-(3-chloro-4-fluoro-phenyl)-3,4,6,7,9,9a-hexahydro-1H-pyrazino[2,1-c][1,4]oxazin-8-yl]methanone], 28.2 nM; that for `O=C(c1cccc(-c2c[nH]nc2F)c1Cl)N1CCN2C[C@@](O)(c3ccc(F)c(F)c3)OC[C@@H]2C1` [Example 92, [(3R,9aS)-3-(3,4-difluorophenyl)-3-hydroxy-1,4,6,7,9,9a-hexahydropyrazino[2,1-c][1,4]oxazin-8-yl]-[2-chloro-3-(3-fluoro-1H-pyrazol-4-yl)phenyl]methanone], 9.1 nM.

In the case of `O=C(c1cc(F)cc(-c2cc[nH]c(=O)c2)c1Cl)N1CCN2C[C@@H](c3ccc(F)c(Cl)c3)OC[C@@H]2C1` [Example 114, 4-[3-[(3R,9aS)-3-(3-chloro-4-fluoro-phenyl)-3,4,6,7,9,9a-hexahydro-1H-pyrazino[2,1-c][1,4]oxazine-8-carbonyl]-2-chloro-5-fluoro-phenyl]-1H-pyridin-2-one], the 50% inhibitory concentration (IC50) was determined as 10.8 nM. With `COc1cccc(C(=O)N2CCN3C[C@@H](c4ccc(C(F)(F)F)nn4)OC[C@@H]3C2)c1Cl` [Example 89, (2-chloro-3-methoxy-phenyl)-[(3S,9aS)-3-[6-(trifluoromethyl)pyridazin-3-yl]-3,4,6,7,9,9a-hexahydro-1H-pyrazino[2,1-c][1,4]oxazin-8-yl]methanone], it took 2030 nM to reach half-maximal inhibition (IC50).

Compound `COc1cccc(C(=O)N2CCN3C[C@H](c4cc(C)c(Cl)cn4)OC[C@@H]3C2)c1Cl` [Example 84, (2-chloro-3-methoxyphenyl)((3R,9aS)-3-(5-chloro-4-methylpyridin-2-yl)hexahydropyrazino[2,1-c][1,4]oxazin-8(1H)-yl)methanone] registered a 50% inhibitory concentration (IC50) of 333 nM. For `N#Cc1cc(-c2cc(F)cc(C(=O)N3CCN4C[C@@H](c5ccc(C(F)(F)F)[nH]c5=O)OC[C@@H]4C3)c2Cl)c[nH]1` [Example 112, 4-[3-[(3R,9aS)-3-[2-oxo-6-(trifluoromethyl)-1H-pyridin-3-yl]-3,4,6,7,9,9a-hexahydro-1H-pyrazino[2,1-c][1,4]oxazine-8-carbonyl]-2-chloro-5-fluoro-phenyl]-1H-pyrrole-2-carbonitrile] the value was 6.5 nM. The result for `COc1cccc(C(=O)N2CCN3C[C@@](O)(c4cc(-c5ccccc5)no4)OC[C@@H]3C2)c1Cl` [Example 143, [(3S,9aS)-3-hydroxy-3-(3-phenylisoxazol-5-yl)-1,4,6,7,9,9a-hexahydropyrazino[2,1-c][1,4]oxazin-8-yl]-(2-chloro-3-methoxy-phenyl)methanone] reads 348 nM; that for `O=C(c1cccc(OC(F)F)c1Cl)N1CCN2C[C@@H](c3ccc(F)c(Cl)c3)OC[C@@H]2C1` [Example 25, [(3R,9aS)-3-(3-chloro-4-fluoro-phenyl)-3,4,6,7,9,9a-hexahydro-1H-pyrazino[2,1-c][1,4]oxazin-8-yl]-[2-chloro-3-(difluoromethoxy)phenyl]methanone], 131 nM. On to `O=C(c1cccc(-c2ccccc2)c1Cl)N1CCN2C[C@@H](c3ccc(F)c(Cl)c3)OC[C@@H]2C1` [Example 22, [(3R,9aS)-3-(3-chloro-4-fluoro-phenyl)-3,4,6,7,9,9a-hexahydro-1H-pyrazino[2,1-c][1,4]oxazin-8-yl]-(2-chloro-3-phenyl-phenyl)methanone], for which the midpoint of inhibition, the IC50, lay at 16.1 nM. Compound `COc1cccc(C(=O)N2CCN3C[C@@H](c4ccc(F)c(C5CC5)c4)OC[C@@H]3C2)c1Cl` [Example 24, [(3R,9aS)-3-(3-cyclopropyl-4-fluoro-phenyl)-3,4,6,7,9,9a-hexahydro-1H-pyrazino[2,1-c][1,4]oxazin-8-yl]-(2-chloro-3-methoxy-phenyl)methanone] displayed an IC50 of 94.8 nM.

Take `O=C1CN(c2cccc(C(=O)N3CCN4C[C@@H](c5ccc(F)c(Cl)c5)OC[C@@H]4C3)c2Cl)CCN1` [Example 126, 4-[3-[(3R,9aS)-3-(3-chloro-4-fluoro-phenyl)-3,4,6,7,9,9a-hexahydro-1H-pyrazino[2,1-c][1,4]oxazine-8-carbonyl]-2-chloro-phenyl]piperazin-2-one]: the IC50 was 96.2 nM.

The values above are taken from patent US12662490B2, “Heterocyclic compounds” (Hoffmann-La Roche Inc., priority 2019, dated 2026).
